Columns and labels:
[1] = tested on: velvetleaf; assay: Test Example 4: herbicidal effect by soil treatment (Table 19, symbol M); assay type: in vivo, velvetleaf (Abutilon theophrasti); details: amount of applied herbicide 320 g/ha
Method in brief: (§1)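 Step 1: sow seeds in sterilized diluvial soil, cover ~1.5 cm. Step 2: spray diluted emulsion onto soil surface at predetermined rate. Step 3: greenhouse, 25–30° C, three weeks. Step 4: grade effect on each plant by earlier criteria.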

[2] = tested on: chickweed; assay: Test Example 5: herbicidal effect by foliage application, plastic box (Table 20, symbol P); assay type: in vivo, common chickweed (Stellaria media); details: foliage application, 320 g/ha
Method in brief: (§2)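 Foliar spray test: emulsion formulation diluted in water to a set application rate, sprayed onto 14-day-old plants raised in diluvial soil at 25° C to 30° C under glass. Both herbicidal effect and crop effect rated visually three weeks later.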

[3] = tested on: late watergrass; assay: Test Example 1: herbicidal activity, application before weed generation under submerged conditions (Table 16, symbol A); assay type: in vivo, late watergrass (Echinochloa oryzicola); details: amount of applied herbicide 320 g/ha
Method in brief: (§3)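 Submerged Wagner pots (alluvial soil, 4 cm water) sown with weed seeds and planted with 2.5-leaf rice seedlings; emulsifiable concentrate diluted in water applied to water surface on sowing day. Held in greenhouse at 25-30 °C; injury scored 0-5 by herbicidal rate after three weeks.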

[4] = tested on: Italian ryegrass; assay: Test Example 5: herbicidal effect by foliage application, plastic box (Table 20, symbol K); assay type: in vivo, Italian ryegrass (Lolium multiflorum); details: foliage application, 320 g/ha
Method in brief: as §2

[5] = tested on: lambsquarters; assay: Test Example 4: herbicidal effect by soil treatment (Table 19, symbol O); assay type: in vivo, lambsquarters (Chenopodium album); details: amount of applied herbicide 320 g/ha
Method in brief: as §1

[6] = tested on: oval-leafed pondweed; assay: Test Example 2: herbicidal activity, application during weed generation under submerged conditions (Table 17, symbol C); assay type: in vivo, oval-leafed pondweed (Monochoria vaginalis)
Method in brief: (§4)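 Alluvial soil in Wagner pots was flooded to 4 cm depth and sown with the three weeds together; pots were kept in a greenhouse at 25° C. to 30° C. At the one to two leaf stage, an emulsion formulation diluted in water to a set rate went onto the water surface; scored three weeks later.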

[7] = tested on: velvetleaf; assay: Test Example 5: herbicidal effect by foliage application, plastic box (Table 20, symbol M); assay type: in vivo, velvetleaf (Abutilon theophrasti); details: foliage application, 320 g/ha
Method in brief: as §2

[8] = tested on: Italian ryegrass; assay: Test Example 4: herbicidal effect by soil treatment (Table 19, symbol K); assay type: in vivo, Italian ryegrass (Lolium multiflorum); details: amount of applied herbicide 320 g/ha
Method in brief: as §1

[9] = tested on: windgrass; assay: Test Example 5: herbicidal effect by foliage application, plastic box (Table 20, symbol L); assay type: in vivo, windgrass (Apera spica-venti); details: foliage application, 320 g/ha
Method in brief: as §2

[10] = tested on: southern crabgrass; assay: Test Example 5: herbicidal effect by foliage application, plastic box (Table 20, symbol F); assay type: in vivo, southern crabgrass (Digitaria ciliaris); details: foliage application, 320 g/ha
Method in brief: as §2

[11] = tested on: green foxtail; assay: Test Example 5: herbicidal effect by foliage application, plastic box (Table 20, symbol G); assay type: in vivo, green foxtail (Setaria viridis); details: foliage application, 320 g/ha
Method in brief: as §2

[12] = tested on: barnyard grass; assay: Test Example 5: herbicidal effect by foliage application, plastic box (Table 20, symbol H); assay type: in vivo, barnyard grass (Echinochloa crus-galli); details: foliage application, 320 g/ha
Method in brief: as §2

[13] = tested on: green foxtail; assay: Test Example 4: herbicidal effect by soil treatment (Table 19, symbol G); assay type: in vivo, green foxtail (Setaria viridis); details: amount of applied herbicide 320 g/ha
Method in brief: as §1

[14] = tested on: Japanese bulrush; assay: Test Example 1: herbicidal activity, application before weed generation under submerged conditions (Table 16, symbol B); assay type: in vivo, Japanese bulrush (Schoenoplectus juncoides); details: amount of applied herbicide 320 g/ha
Method in brief: as §3

[15] = tested on: wild oat; assay: Test Example 5: herbicidal effect by foliage application, plastic box (Table 20, symbol I); assay type: in vivo, wild oat (Avena fatua); details: foliage application, 320 g/ha
Method in brief: as §2

[16] = tested on: Japanese bulrush; assay: Test Example 2: herbicidal activity, application during weed generation under submerged conditions (Table 17, symbol B); assay type: in vivo, Japanese bulrush (Schoenoplectus juncoides)
Method in brief: as §4

[17] = tested on: wild oat; assay: Test Example 4: herbicidal effect by soil treatment (Table 19, symbol I); assay type: in vivo, wild oat (Avena fatua); details: amount of applied herbicide 320 g/ha
Method in brief: as §1

[18] = tested on: redroot pigweed; assay: Test Example 4: herbicidal effect by soil treatment (Table 19, symbol N); assay type: in vivo, redroot pigweed (Amaranthus retroflexus); details: amount of applied herbicide 320 g/ha
Method in brief: as §1

[19] = tested on: blackgrass; assay: Test Example 5: herbicidal effect by foliage application, plastic box (Table 20, symbol J); assay type: in vivo, blackgrass (Alopecurus myosuroides); details: foliage application, 320 g/ha
Method in brief: as §2

[20] = tested on: persian speedwell; assay: Test Example 4: herbicidal effect by soil treatment (Table 19, symbol R); assay type: in vivo, Persian speedwell (Veronica persica); details: amount of applied herbicide 320 g/ha
Method in brief: as §1

[21] = evaluated 3 weeks after application
[22] = application during weed generation under submerged conditions, amount of applied herbicide 320 g/ha
[23] = AAH 320 g/ha, application during weed generation, submerged conditions

Cc1nn(C)c(=O)c(-c2c(-c3ccc(Cl)cc3)sc3cccc(F)c23)c1O [11-001]
M: velvetleaf, herbicidal effect grade [1]: 2 (Herbicidal rate of 20% or more and less than 40%)
P (chickweed) herbicidal effect grade [2, 21]: 5 (Herbicidal rate of 90% or more (almost completely withered))
Herbicidal effect, A: late watergrass [3]: 3 (Herbicidal rate of 40% or more and less than 70%)
K (Italian ryegrass) herbicidal effect grade [4, 21]: 3 (Herbicidal rate of 40% or more and less than 70%)
O: lambsquarters, herbicidal effect grade [5]: 4 (Herbicidal rate of 70% or more and less than 90%)
herbicidal effect grade, C: oval-leafed pondweed [6, 22]: 3 (Herbicidal rate of 40% or more and less than 70%)
M (velvetleaf) herbicidal effect grade [7, 21]: 5 (Herbicidal rate of 90% or more (almost completely withered))
K: Italian ryegrass, herbicidal effect grade [8]: 0 (Herbicidal rate of 5% or less (almost no effect))
L (windgrass) herbicidal effect grade [9, 21]: 0 (Herbicidal rate of 5% or less (almost no effect))
F (southern crabgrass) herbicidal effect grade [10, 21]: 0 (Herbicidal rate of 5% or less (almost no effect))
G (green foxtail) herbicidal effect grade [11, 21]: 0 (Herbicidal rate of 5% or less (almost no effect))
H (barnyard grass) herbicidal effect grade [12, 21]: 0 (Herbicidal rate of 5% or less (almost no effect))
G: green foxtail, herbicidal effect grade [13]: 0 (Herbicidal rate of 5% or less (almost no effect))
Herbicidal effect, B: Japanese bulrush [14]: 5 (Herbicidal rate of 90% or more (almost completely withered))
I (wild oat) herbicidal effect grade [15, 21]: 0 (Herbicidal rate of 5% or less (almost no effect))
herbicidal effect grade, B: Japanese bulrush [16, 22]: 3 (Herbicidal rate of 40% or more and less than 70%)
I: wild oat, herbicidal effect grade [17]: 0 (Herbicidal rate of 5% or less (almost no effect))
N: redroot pigweed, herbicidal effect grade [18]: 5 (Herbicidal rate of 90% or more (almost completely withered))
J (blackgrass) herbicidal effect grade [19, 21]: 0 (Herbicidal rate of 5% or less (almost no effect))
R: persian speedwell, herbicidal effect grade [20]: 5 (Herbicidal rate of 90% or more (almost completely withered))

CCCC(=O)Oc1c(C)nn(C)c(=O)c1-c1c(-c2ccc(F)cc2OCC)sc2cc(Cl)ccc12 [3-046]
M: velvetleaf, herbicidal effect grade [1]: 1 (Herbicidal rate of 5% or more and less than 20%)
P: chickweed, herbicidal effect grade ([2]; three weeks after application): 5 (Herbicidal rate of 90% or more (almost completely withered))
Herbicidal effect, A: late watergrass [3]: 4 (Herbicidal rate of 70% or more and less than 90%)
K: Italian ryegrass, herbicidal effect grade ([4]; three weeks after application): 0 (Herbicidal rate of 5% or less (almost no effect))
O: lambsquarters, herbicidal effect grade [5]: 3 (Herbicidal rate of 40% or more and less than 70%)
herbicidal effect rating, C: oval-leafed pondweed [6, 23]: 1 (Herbicidal rate of 5% or more and less than 20%)
M: velvetleaf, herbicidal effect grade ([7]; three weeks after application): 4 (Herbicidal rate of 70% or more and less than 90%)
K: Italian ryegrass, herbicidal effect grade [8]: 0 (Herbicidal rate of 5% or less (almost no effect))
L: windgrass, herbicidal effect grade ([9]; three weeks after application): 4 (Herbicidal rate of 70% or more and less than 90%)
F: southern crabgrass, herbicidal effect grade ([10]; three weeks after application): 5 (Herbicidal rate of 90% or more (almost completely withered))
G: green foxtail, herbicidal effect grade ([11]; three weeks after application): 5 (Herbicidal rate of 90% or more (almost completely withered))
H: barnyard grass, herbicidal effect grade ([12]; three weeks after application): 5 (Herbicidal rate of 90% or more (almost completely withered))
G: green foxtail, herbicidal effect grade [13]: 0 (Herbicidal rate of 5% or less (almost no effect))
Herbicidal effect, B: Japanese bulrush [14]: 0 (Herbicidal rate of 5% or less (almost no effect))
I: wild oat, herbicidal effect grade ([15]; three weeks after application): 5 (Herbicidal rate of 90% or more (almost completely withered))
herbicidal effect rating, B: Japanese bulrush [16, 23]: 2 (Herbicidal rate of 20% or more and less than 40%)
I: wild oat, herbicidal effect grade [17]: 0 (Herbicidal rate of 5% or less (almost no effect))
N: redroot pigweed, herbicidal effect grade [18]: 5 (Herbicidal rate of 90% or more (almost completely withered))
J: blackgrass, herbicidal effect grade ([19]; three weeks after application): 4 (Herbicidal rate of 70% or more and less than 90%)
R: persian speedwell, herbicidal effect grade [20]: 4 (Herbicidal rate of 70% or more and less than 90%)

From patent US20230085307A1, “PYRIDAZINONE COMPOUND AND HERBICIDE” (NISSAN CHEMICAL CORPORATION, priority 2019, published 2023)
